# Experiments:
# Type in all cases: in vivo
# [1] = tested on: blackgrass (Alopecurus myosuroides); test: Test A greenhouse herbicide test, postemergence
# Summary of the method: (§1)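 Greenhouse postemergence test: formulated chemicals sprayed on one- to two-leaf plants (2 to 10 cm), grown in loam soil blended with sand. Injury assessed visually about 10 d later against untreated controls, scored 0 (no effect) to 100 (complete control).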
# [2] = tested on: galium (catchweed bedstraw, Galium aparine); test: Test A greenhouse herbicide test, postemergence
# Summary of the method: as §1
# [3] = tested on: chickweed (common chickweed, Stellaria media); test: Test C greenhouse herbicide test, postemergence
# Summary of the method: (§2)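 Seedlings are raised in pots of peat moss–vermiculite medium with starter nutrients, then receive postemergence test chemical at the 1- to 4-leaf stage. They are kept in the greenhouse 13 to 15 d and scored visually versus controls, 0 meaning no effect and 100 complete control.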
# [4] = tested on: oat, wild (wild oat, Avena fatua); test: Test C greenhouse herbicide test, postemergence
# Summary of the method: as §2
# kochia (Kochia scoparia) = test: Test C greenhouse herbicide test, postemergence
# Summary of the method: as §2
# [5] = tested on: johnsongrass (Sorghum halepense); test: Test C greenhouse herbicide test, pre- and postemergence
# Summary of the method: (§3)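 Two application timings: at sowing into a soil/sand blend, and on 2–18 cm seedlings in peat-vermiculite potting mix. A non-phytotoxic, surfactant-containing solvent carried the compounds. Plants were compared with controls and rated visually on 0–100 after 13–15 d.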
# [6] = tested on: pigweed (Amaranthus retroflexus); test: as above
# Summary of the method: as §3
# [7] = tested on: wheat (winter wheat, Triticum aestivum); test: as above
# Summary of the method: as §3
# [8] = tested on: ducksalad (Heteranthera limosa); test: Test B flooded paddy test; settings: 250 g ai/ha, Flood; visual rating on scale of 0 to 100 where 0 is no effect and 100 is complete control; 13 to 15 d after treatment
# Summary of the method: (§4)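 Plants at the 2-leaf stage were flooded to 3 cm above soil, and test compounds were applied directly into the paddy water, which was held at that depth throughout. After 13 to 15 d in a greenhouse, injury was rated visually against untreated controls on a 0–100 scale (0 no effect, 100 complete control).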
# [9] = tested on: sedge, umbrella (small-flower umbrella sedge, Cyperus difformis); test: Test B flooded paddy test; settings: 250 g ai/ha, Flood; visual rating on scale of 0 to 100 where 0 is no effect and 100 is complete control; 13 to 15 d after treatment
# Summary of the method: as §4
# [10] = tested on: barnyardgrass (Echinochloa crus-galli); test: Test B flooded paddy test; settings: 250 g ai/ha, Flood; visual rating on scale of 0 to 100 where 0 is no effect and 100 is complete control; 13 to 15 d after treatment
# Summary of the method: as §4
# rice (Oryza sativa) = test: Test B flooded paddy test; settings: 250 g ai/ha, Flood; visual rating on scale of 0 to 100 where 0 is no effect and 100 is complete control; 13 to 15 d after treatment
# Summary of the method: as §4
# [11] = 125 g ai/ha, 0 to 100 scale where 0 is no effect and 100 is complete control
# [12] = 500 g ai/ha, visual rating after approx. 10 d, 0 to 100 scale (0 no effect, 100 complete control)
# [13] = Postemergence, 31 g ai/ha, scale 0 to 100 (0 no effect, 100 complete control)
# [14] = Postemergence, 62 g ai/ha, 0 to 100 scale (0 no effect, 100 complete control)
# [15] = Postemergence, 125 g ai/ha, scale 0 to 100, 0 is no effect, 100 is complete control
# [16] = Postemergence, 250 g ai/ha, scale 0 to 100, 0 no effect, 100 complete control, 13 to 15 d
# [17] = postemergence, 125 g ai/ha, scale 0 to 100, 0 no effect, 100 complete control
# [18] = Preemergence, 31 g ai/ha, scale 0 to 100, 0 is no effect, 100 is complete control
# [19] = Preemergence, 62 g ai/ha, scale 0 to 100, 0 is no effect, 100 is complete control
# [20] = Preemergence, 125 g ai/ha, scale 0 to 100, 0 is no effect, 100 is complete control
# [21] = Preemergence, 250 g ai/ha, scale 0 to 100, 0 no effect, 100 complete control
# [22] = 125 g ai/ha, 0 to 100 scale, 0 no effect, 100 complete control
# [23] = Postemergence, 250 g ai/ha, scale 0 to 100, 0 is no effect, 100 is complete control
smiles,measurement,setting,value
Cc1nn(C)c(=O)c(-c2cccc3ccc(Br)cc23)c1O [Compound 126],"Plant response rating, Blackgrass",[1]; [11],60
same,"Plant response rating, Blackgrass",[1]; [12],70
same,"Plant response rating, Galium",[2]; [11],100
same,"Plant response rating, Galium",[2]; [12],100
same,"Plant response rating, Chickweed",[3]; [13],90
same,Chickweed plant response rating,[3]; [14],90
same,"Plant response rating, Chickweed",[3]; [15],95
same,"Plant response rating, Chickweed",[3]; [16],100
same,"Plant response rating, Oat, Wild",[4]; [13],60
same,"Oat, Wild plant response rating",[4]; [14],80
same,"Plant response rating, Oat, Wild",[4]; [15],90
same,"Plant response rating, Oat, Wild",[4]; [16],85
same,"Plant response rating, Kochia",kochia (Kochia scoparia); [13],90
same,Kochia plant response rating,kochia (Kochia scoparia); [14],90
same,"Plant response rating, Kochia",kochia (Kochia scoparia); [15],95
same,"Plant response rating, Kochia",kochia (Kochia scoparia); [16],95
same,"Plant response rating, Johnsongrass",[5]; [13],10
same,Johnsongrass plant response rating,[5]; [14],10
same,"Plant response rating, Johnsongrass",[5]; [15],15
same,"Plant response rating, Johnsongrass",[5]; [16],25
same,"Plant response rating, Pigweed",[6]; [13],85
same,Pigweed plant response rating,[6]; [14],90
same,"Plant response rating, Pigweed",[6]; [15],95
same,"Plant response rating, Pigweed",[6]; [16],95
same,"Plant response rating, Wheat",[7]; [13],0
same,Wheat plant response rating,[7]; [14],0
same,"Plant response rating, Wheat",[7]; [15],0
same,"Plant response rating, Wheat",[7]; [16],5
same,"Plant response rating, Ducksalad",[8],30
same,"Plant response rating, Sedge, Umbrella",[9],0
same,"Plant response rating, Barnyardgrass",[10],0
same,"Plant response rating, Rice",rice (Oryza sativa),0
COC(=O)Oc1c(C)nn(C)c(=O)c1-c1ccc(F)c2ccccc12 [Compound 130],"Plant response rating, Blackgrass",[1]; [11],60
same,"Plant response rating, Blackgrass",[1]; [12],70
same,"Plant response rating, Galium",[2]; [11],100
same,"Plant response rating, Galium",[2]; [12],100
same,"Plant response rating, Chickweed",[3]; [13],90
same,Chickweed plant response rating,[3]; [14],95
same,"Plant response rating, Chickweed",[3]; [16],100
same,Chickweed plant response rating,[3]; [17],98
same,"Plant response rating, Oat, Wild",[4]; [13],60
same,"Oat, Wild plant response rating",[4]; [14],80
same,"Plant response rating, Oat, Wild",[4]; [16],95
same,"Oat, Wild plant response rating",[4]; [17],85
same,"Plant response rating, Kochia",kochia (Kochia scoparia); [13],95
same,Kochia plant response rating,kochia (Kochia scoparia); [14],95
same,"Plant response rating, Kochia",kochia (Kochia scoparia); [16],100
same,Kochia plant response rating,kochia (Kochia scoparia); [17],100
same,"Plant response rating, Johnsongrass",[5]; [13],5
same,Johnsongrass plant response rating,[5]; [14],5
same,"Plant response rating, Johnsongrass",[5]; [16],20
same,Johnsongrass plant response rating,[5]; [17],5
same,"Plant response rating, Pigweed",[6]; [13],50
same,Pigweed plant response rating,[6]; [14],70
same,"Plant response rating, Pigweed",[6]; [16],90
same,Pigweed plant response rating,[6]; [17],90
same,"Plant response rating, Wheat",[7]; [13],0
same,Wheat plant response rating,[7]; [14],5
same,"Plant response rating, Wheat",[7]; [16],15
same,Wheat plant response rating,[7]; [17],10
same,"Plant response rating, Ducksalad",[8],0
same,"Plant response rating, Sedge, Umbrella",[9],0
same,"Plant response rating, Barnyardgrass",[10],0
same,"Plant response rating, Rice",rice (Oryza sativa),0
CC(=O)Oc1c(C)nn(C)c(=O)c1-c1c(C)sc2ccc(C(F)(F)F)cc12 [Compound 132],"Plant response rating, Blackgrass",[1]; [11],30
same,"Plant response rating, Blackgrass",[1]; [12],50
same,"Plant response rating, Galium",[2]; [11],80
same,"Plant response rating, Galium",[2]; [12],100
same,"Plant response rating, Chickweed",[3]; [13],90
same,Chickweed plant response rating,[3]; [14],90
same,"Plant response rating, Chickweed",[3]; [16],95
same,Chickweed plant response rating,[3]; [17],95
same,"Plant response rating, Oat, Wild",[4]; [13],40
same,"Oat, Wild plant response rating",[4]; [14],60
same,"Plant response rating, Oat, Wild",[4]; [16],90
same,"Oat, Wild plant response rating",[4]; [17],70
same,"Plant response rating, Kochia",kochia (Kochia scoparia); [13],85
same,Kochia plant response rating,kochia (Kochia scoparia); [14],90
same,"Plant response rating, Kochia",kochia (Kochia scoparia); [16],95
same,Kochia plant response rating,kochia (Kochia scoparia); [17],95
same,"Plant response rating, Johnsongrass",[5]; [13],0
same,Johnsongrass plant response rating,[5]; [14],5
same,"Plant response rating, Johnsongrass",[5]; [16],10
same,"Plant response rating, Johnsongrass",[5]; [18],15
same,"Plant response rating, Johnsongrass",[5]; [19],10
same,"Plant response rating, Johnsongrass",[5]; [20],55
same,Johnsongrass plant response rating,[5]; [21],25
same,Johnsongrass plant response rating,[5]; [17],5
same,"Plant response rating, Pigweed",[6]; [13],50
same,Pigweed plant response rating,[6]; [14],55
same,"Plant response rating, Pigweed",[6]; [16],65
same,"Plant response rating, Pigweed",[6]; [18],100
same,"Plant response rating, Pigweed",[6]; [19],100
same,"Plant response rating, Pigweed",[6]; [20],100
same,Pigweed plant response rating,[6]; [21],100
same,Pigweed plant response rating,[6]; [17],70
same,"Plant response rating, Wheat",[7]; [13],0
same,Wheat plant response rating,[7]; [14],0
same,"Plant response rating, Wheat",[7]; [16],0
same,"Plant response rating, Wheat",[7]; [18],25
same,"Plant response rating, Wheat",[7]; [19],40
same,"Plant response rating, Wheat",[7]; [20],20
same,Wheat plant response rating,[7]; [21],50
same,Wheat plant response rating,[7]; [17],0
same,"Plant response rating, Ducksalad",[8],0
same,"Plant response rating, Sedge, Umbrella",[9],0
same,"Plant response rating, Barnyardgrass",[10],0
same,"Plant response rating, Rice",rice (Oryza sativa),0
Cc1nn(C)c(=O)c(-c2c([N+](=O)[O-])ccc3ccccc23)c1O [Compound 165],"Plant response rating, Blackgrass",[1]; [22],20
same,"Plant response rating, Blackgrass",[1]; [12],50
same,"Plant response rating, Galium",[2]; [22],100
same,"Plant response rating, Galium",[2]; [12],100
same,"Plant response rating, Chickweed",[3]; [13],70
same,Chickweed plant response rating,[3]; [14],90
same,"Plant response rating, Chickweed",[3]; [23],98
same,Chickweed plant response rating,[3]; [17],95
same,"Plant response rating, Oat, Wild",[4]; [13],40
same,"Oat, Wild plant response rating",[4]; [14],45
same,"Plant response rating, Oat, Wild",[4]; [23],70
same,"Oat, Wild plant response rating",[4]; [17],65
same,"Plant response rating, Kochia",kochia (Kochia scoparia); [13],45
same,Kochia plant response rating,kochia (Kochia scoparia); [14],40
same,"Plant response rating, Kochia",kochia (Kochia scoparia); [23],90
same,Kochia plant response rating,kochia (Kochia scoparia); [17],85
same,"Plant response rating, Johnsongrass",[5]; [13],0
same,Johnsongrass plant response rating,[5]; [14],5
same,"Plant response rating, Johnsongrass",[5]; [23],15
same,Johnsongrass plant response rating,[5]; [17],10
same,"Plant response rating, Pigweed",[6]; [13],75
same,Pigweed plant response rating,[6]; [14],70
same,"Plant response rating, Pigweed",[6]; [23],85
same,Pigweed plant response rating,[6]; [17],75
same,"Plant response rating, Wheat",[7]; [13],5
same,Wheat plant response rating,[7]; [14],5
same,"Plant response rating, Wheat",[7]; [23],15
same,Wheat plant response rating,[7]; [17],10
same,"Plant response rating, Ducksalad",[8],0
same,"Plant response rating, Sedge, Umbrella",[9],0
same,"Plant response rating, Barnyardgrass",[10],0
same,"Plant response rating, Rice",rice (Oryza sativa),0

# Source: patent US10597388B2, “Pyridazinone herbicides” (FMC CORPORATION, priority 2014, dated 2020)
